From patent US9896441B2 (Lycera Corporation, priority 2014, dated 2018)

Columns and labels:
[1] = target: T1, RORγ-LBD (Homo sapiens, UniProt P51449); assay: RORγ-Ligand Binding Domain (LBD) TR-FRET Assay; type: biochemical; settings: for TR-FRET Assay Max Response: maximum response;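 for TR-FRET Assay Max Response: 665/615 nm signal ratio set to 100 without ursolic acid or test compound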
T1 construct: made in house; host or cells: SF9 cells (baculovirus); used as diluted lysate
T1 sequence (P51449 269-508 limits assumed): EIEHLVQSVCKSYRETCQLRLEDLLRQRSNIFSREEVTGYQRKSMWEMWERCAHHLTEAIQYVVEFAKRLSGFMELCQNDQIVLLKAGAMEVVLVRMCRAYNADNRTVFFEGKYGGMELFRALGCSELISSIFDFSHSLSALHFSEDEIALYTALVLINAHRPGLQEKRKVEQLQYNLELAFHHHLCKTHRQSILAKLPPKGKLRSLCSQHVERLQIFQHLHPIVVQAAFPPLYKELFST
Method in brief: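 His-tagged RORγ-LBD from SF9 baculovirus lysate, ~3 nM final, in 50 mM Tris pH 7.0, 50 mM KCl, 1 mM EDTA, 0.1 mM DTT, 0.01% BSA. Biotinylated SRC1 LXXLL peptide at 200 nM final with 2 μM ursolic acid; TR-FRET read-out, 1% DMSO final.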

[2] = target: T2, Gal4-RORγ-LBD (Homo sapiens, UniProt P51449); assay: Gal4-RORγ Luciferase Reporter Assay in HEK-293T Cells; type: cell-based; settings: HEK-293 cells; for Gal4-RORγ Assay Max Response: maximum response
T2 construct: expressed in transfected cells
T2 sequence (P51449 269-508 limits assumed): T1 sequence (P51449 269-508 limits assumed)
Method in brief: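 HEK-293 cells were co-transfected with Gal4-RORγ-LBD and a Gal4-luciferase reporter, then exposed overnight at 37 °C to compounds with […] ursolic acid present (0.2% DMSO). Luminescence was read with One-Glo after 10 min at RT, untreated signal was set as 100, and Max Response was taken as the upper plateau of a 4-parameter logistic fit.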

[3] = luciferase reporter, in presence of ursolic acid

EC50 ([1]; RORγ-LBD TR-FRET assay)	EC50 [2, 3]	EC50 ([1]; with 2 μM ursolic acid (RORγ antagonist), highest test concentration 10 μM)	EC50 ([2]; ursolic acid present, luciferase readout)	Compound	TR-FRET Assay Max Response ([1]; RORγ-LBD TR-FRET assay)	Gal4-RORγ Assay Max Response [2, 3]
< 0.5 µM	0.5 to 5 µM			COc1cc(S(=O)(=O)N2C[C@H](CCC(=O)O)Oc3ccc(/C=C(\C)C4CCCC4)cc32)ccc1F [Example 191A, (S,E)-3-(6-(2-cyclopentylprop-1-en-1-yl)-4-((4-fluoro-3-methoxyphenyl)sulfonyl)-3,4-dihydro-2H-benzo[b][1,4]-oxazin-2-yl)propanoic acid]	** (a value in the range of greater than 90 to 150)	** (a value in the range of greater than 90 to 150)
< 0.5 µM	0.5 to 5 µM			CC/C(C)=C\c1ccc2c(c1)N(S(=O)(=O)c1cccc(C(F)(F)F)c1)C[C@H](CCC(=O)O)O2 [Example 191B, (S,Z)-3-(6-(2-methylbut-1-en-1-yl)-4-((3-(trifluoromethyl)-phenyl)sulfonyl)-3,4-dihydro-2H-benzo[b][1,4]oxazin-2-yl)propanoic acid]	*** (a value in the range of greater than 150 to 200)	*** (a value in the range of greater than 150 to 200)
< 0.5 µM	0.5 to 5 µM			CC/C(C)=C\c1ccc2c(c1)N(S(=O)(=O)c1cccc(C(F)(F)F)c1)C[C@H](CCC(=O)OC)O2 [Example 191C, methyl (S,Z)-3-(6-(2-methylbut-1-en-1-yl)-4-((3-(trifluoromethyl)phenyl)-sulfonyl)-3,4-dihydro-2H-benzo[b][1,4]oxazin-2-yl)propanoate]	**** (a value greater than 200)	** (a value in the range of greater than 90 to 150)
< 0.5 µM	> 10 µM			CC/C(C)=C\c1ccc2c(c1)N(S(=O)(=O)c1cc(C(F)(F)F)cnc1OCCO)C[C@H](CCC(=O)O)O2 [Example 191D, (S,Z)-3-(4-((2-(2-hydroxyethoxy)-5-(trifluoromethyl)pyridin-3-yl)sulfonyl)-6-(2-methylbut-1-en-1-yl)-3,4-dihydro-2H-benzo[b][1,4]oxazin-2-yl)propanoic acid]	** (a value in the range of greater than 90 to 150)	
		< 0.5 µM	0.5 to 5 µM	CC/C(=C\c1ccc2c(c1)N(S(=O)(=O)c1cc(C(F)(F)F)cnc1OCCO)C[C@H](CCC(=O)O)O2)C(C)C [Example 191E, (S,E)-3-(6-(2-ethyl-3-methylbut-1-en-1-yl)-4-((2-(2-hydroxy-ethoxy)-5-(trifluoromethyl)-pyridin-3-yl)sulfonyl)-3,4-dihydro-2H-benzo[b][1,4]oxazin-2-yl)propanoic acid]		

The remaining lines, values behind:

Compound	EC50 ([1]; RORγ-LBD TR-FRET assay)	EC50 [2, 3]	EC50 ([1]; with 2 μM ursolic acid (RORγ antagonist), highest test concentration 10 μM)	EC50 ([2]; ursolic acid present, luciferase readout)	TR-FRET Assay Max Response ([1]; RORγ-LBD TR-FRET assay)	Gal4-RORγ Assay Max Response [2, 3]
COc1cc(S(=O)(=O)C2CC(CC(C)(C)C(=O)O)Oc3ccc(OCc4c(F)cccc4Cl)cc32)ccc1F (centres unmarked) [Example 186C, 3-(6-((2-chloro-6-fluorobenzyl)oxy)-4-((4-fluoro-3-methoxyphenyl)sulfonyl)chroman-2-yl)-2,2-dimethylpropanoic acid]	< 0.5 µM	> 10 µM			*** (a value in the range of greater than 150 to 200)	** (a value in the range of greater than 90 to 150)
CC(C)(CC1CC(S(=O)(=O)c2cccc(C(F)(F)F)c2)c2cc(OCc3c(F)cccc3Cl)ccc2O1)C(=O)O (centres unmarked) [Example 186E, 3-(6-((2-chloro-6-fluorobenzyl)oxy)-4-((3-(trifluoromethyl)phenyl)-sulfonyl)chroman-2-yl)-2,2-dimethylpropanoic acid]	< 0.5 µM	0.5 to 5 µM			** (a value in the range of greater than 90 to 150)	** (a value in the range of greater than 90 to 150)
COC(=O)CCC1CC(S(=O)(=O)c2ccc(F)c(OC)c2)c2cc(/C=C(\C)c3c(F)cccc3Cl)ccc2O1 (centres unmarked) [Example 186F, methyl (E)-3-(6-(2-(2-chloro-6-fluorophenyl)prop-1-en-1-yl)-4-((4-fluoro-3-methoxyphenyl)sulfonyl)chroman-2-yl)propanoate]	< 0.5 µM	< 0.5 µM			*** (a value in the range of greater than 150 to 200)	* (a value in the range of 30 to 90)
COc1cc(S(=O)(=O)C2CC(CCC(=O)O)Oc3ccc(/C=C(\C)c4c(F)cccc4Cl)cc32)ccc1F (centres unmarked) [Example 186G, (E)-3-(6-(2-(2-chloro-6-fluorophenyl)prop-1-en-1-yl)-4-((4-fluoro-3-methoxyphenyl)-sulfonyl)chroman-2-yl)propanoic acid]	< 0.5 µM	0.5 to 5 µM			** (a value in the range of greater than 90 to 150)	** (a value in the range of greater than 90 to 150)
COC(=O)CCC1CC(S(=O)(=O)c2cccc(C(F)(F)F)c2)c2cc(/C=C(\C)c3c(F)cccc3Cl)ccc2O1 (centres unmarked) [Example 186H, methyl (E)-3-(6-(2-(2-chloro-6-fluorophenyl)prop-1-en-1-yl)-4-((3-(trifluoromethyl)phenyl)-sulfonyl)chroman-2-yl)propanoate]	< 0.5 µM	< 0.5 µM			*** (a value in the range of greater than 150 to 200)	** (a value in the range of greater than 90 to 150)
C/C(=C\c1ccc2c(c1)C(S(=O)(=O)c1cccc(C(F)(F)F)c1)CC(CCC(=O)O)O2)c1c(F)cccc1Cl (centres unmarked) [Example 186I, (E)-3-(6-(2-(2-chloro-6-fluorophenyl)prop-1-en-1-yl)-4-((3-(trifluoromethyl)phenyl)-sulfonyl)chroman-2-yl)propanoic acid]	< 0.5 µM	< 0.5 µM			** (a value in the range of greater than 90 to 150)	** (a value in the range of greater than 90 to 150)
CCOC(=O)C(C)(C)CC1CC(S(=O)(=O)c2ccc(F)c(OC)c2)c2cc(/C=C(\C)c3c(F)cccc3Cl)ccc2O1 (centres unmarked) [Example 186J, ethyl (E)-3-(6-(2-(2-chloro-6-fluorophenyl)prop-1-en-1-yl)-4-44-fluoro-3-methoxyphenyl)-sulfonyl)chroman-2-yl)-2,2-dimethylpropanoate]	< 0.5 µM	0.5 to 5 µM			** (a value in the range of greater than 90 to 150)	** (a value in the range of greater than 90 to 150)
CCOC(=O)C(C)(C)C[C@H]1C[C@H](S(=O)(=O)c2cccc(C(F)(F)F)c2)c2cc(/C=C(\C)c3c(F)cccc3Cl)ccc2O1 [Example 186M, ethyl 3-((2S,45)-6-((E)-2-(2-chloro-6-fluorophenyl)prop-1-en-1-yl)-4-((3-(trifluoromethyl)-phenyl)sulfonyl)chroman-2-yl)-2,2-dimethylpropanoate]	< 0.5 µM	< 0.5 µM			*** (a value in the range of greater than 150 to 200)	* (a value in the range of 30 to 90)
C/C(=C\c1ccc2c(c1)C(S(=O)(=O)c1cccc(C(F)(F)F)c1)CC(CC(C)(C)C(=O)O)O2)c1c(F)cccc1Cl (centres unmarked) [Example 186N, (E)-3-(6-(2-(2-chloro-6-fluorophenyl)prop-1-en-1-yl)-4-((3-(trifluoromethyl)phenyl)-sulfonyl)chroman-2-yl)-2,2-dimethylpropanoic acid]	< 0.5 µM	< 0.5 µM			*** (a value in the range of greater than 150 to 200)	** (a value in the range of greater than 90 to 150)
C/C(=C\c1ccc2c(c1)N(S(=O)(=O)c1cccc(C(F)(F)F)c1)CCS2)c1c(F)cccc1Cl [Example 187, (E)-6-(2-(2-Chloro-6-fluorophenyl)prop-1-en-1-yl)-4-((3-(trifluoromethyl)phenyl)sulfonyl)-3,4-dihydro-2H-benzo[b][1,4]thiazine]	< 0.5 µM	< 0.5 µM			**** (a value greater than 200)	** (a value in the range of greater than 90 to 150)
C/C(=C\c1ccc2c(c1)N(S(=O)(=O)c1cccc(C(F)(F)F)c1)CCC2=O)c1c(F)cccc1Cl [Example 188, (E)-7-(2-(2-chloro-6-fluorophenyl)prop-1-en-1-yl)-1-((3-(trifluoromethyl)phenyl)sulfonyl)-2,3-dihydroquinolin-4(1H)-one]	< 0.5 µM	0.5 to 5 µM			**** (a value greater than 200)	** (a value in the range of greater than 90 to 150)
C/C(=C\c1ccc2c(c1)N(S(=O)(=O)c1cccc(C(F)(F)F)c1)CCC2(F)F)c1c(F)cccc1Cl [Example 189, (E)-7-(2-(2-Chloro-6-fluorophenyl)prop-1-en-1-yl)-4,4-difluoro-1-((3-(trifluoromethyl)phenyl)sulfonyl)-1,2,3,4-tetrahydroquinoline]	< 0.5 µM	0.5 to 5 µM			*** (a value in the range of greater than 150 to 200)	** (a value in the range of greater than 90 to 150)
